{"source": "patent US20240122930A1", "about": "“INTEGRIN INHIBITORS AND USES THEREOF IN COMBINATION WITH OTHER AGENTS” (Pliant Therapeutics, Inc., priority 2022, published 2024)", "key": {"[1]": {"test_system": "Type I Collagen gene Col1a1 expression", "test": "Precision cut lung slices, acute bleomycin exposure, Col1a1 expression", "type": "cell-based, mice (C57BL/6)", "details": "acute bleomycin PCLS, 3 days culture; integrin inhibitors at IC50 for TGF-beta activation, pan-αV and ALK5 inhibitors at 10× IC50", "method": "Mice (C57BL/6) were administered 3 U/kg of bleomycin (Teva Pharmaceuticals; North Wales, PA) on day 0 via oropharyngeal aspiration while under anesthesia. On day 14, precision cut lung slices were obtained. Following euthanization, 2% low gelling temp agarose was injected into the mouse lungs via the trachea. […] The lobes were then subjected to precision slicing to obtain samples for culture using a microtome (Compresstome VF-300-OZ, Precisionary; Greenville, NC). Individual slices were distributed in a multiwell culture plate and cultured for 3 days under control (DMSO) and test compound conditions. The viability of the slices over the course of culturing was confirmed by WST-1 assay of mitochondrial activity."}, "[2]": {"test": "Phase 2a clinical trial: pharmacokinetics, sparse sampling, % unbound", "type": "in vivo, human", "details": "b1346 concentrations; b1380 unbound concentrations", "excerpt": "Overall Summary of Pharmacokinetics. Based on sparse sampling, overall Compound 5 pharmacokinetics and % unbound in IPF were consistent with that of previous studies. […] Overall % unbound was ˜0.3 to 0.5%. Full PK curve will be predicted using population PK model to project AUC0-24 and Cmax.\nPharmacokinetic Evaluation. Sparse PK sampling was utilized for pharmacokinetic evaluation."}}, "data": [{"smiles": "COCCN(CCCCc1ccc2c(n1)NCCC2)CC[C@H](Nc1ncnc2ccccc12)C(=O)O", "note": "[Compound 5, (S)-4-((2-methoxyethyl) (4-(5,6,7,8-tetrahydro-1,8-naphthyridin-2-yl)butyl)amino)-2-(quinazolin-4-ylamino) butanoic acid]", "values": [{"measurement": "Type I Collagen gene Col1a1 expression, normalized to DMSO control slices", "setting": "[1]", "result": "decreased Type I Collagen gene Col1a1 expression substantially"}, {"measurement": "Concentrations in IPF participants versus dose", "setting": "[2]", "result": "increased approximately proportionally with dose"}]}]}
